We go through 19 molecules from US9808003B2, “Herbicidally active 2-(substituted-phenyl)-cyclopentane-1,3-dione compounds and derivatives thereof” (Syngenta Limited, priority 2013, dated 2017).

Assay in all cases: Test 1A glasshouse assay, post-emergence herbicidal activity
Assay type in all cases: in vivo

Test [1] deals with Alopecurus myosuroides (ALOMY). The conditions noted are these: Alopecurus myosuroides, 312 h, application rate 250 g/ha, 13 days after application, visual (100%=total damage; 0%=no damage), read-out: Post-emergence Herbicidal Activity (% Phytotoxicity) ALOMY. In outline:
(§1)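 Test species were sown in pots of standard soil and cultivated for 8 days at 24/16 °C (day/night) with 14 h light and 65% humidity. Plants were next sprayed with the formulated active ingredient (acetone/water 50:50, 0.5% Tween 20). Damage was rated visually as % phytotoxicity 13 days later.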

Another test has as its system Avena fatua (AVEFA). To be noted: Avena fatua, 312 h, application rate 250 g/ha, 13 days after application, visual (100%=total damage; 0%=no damage), read-out: Post-emergence Herbicidal Activity (% Phytotoxicity) AVEFA. In outline:
as §1

The test system of test [2] is Echinochloa crus-galli (ECHCG). The conditions noted are these: Echinochloa crus-galli, 312 h, application rate 250 g/ha, 13 days after application, visual (100%=total damage; 0%=no damage), read-out: Post-emergence Herbicidal Activity (% Phytotoxicity) ECHCG. In outline: as §1
A further test has as its system Lolium perenne (LOLPE). The conditions noted are these: Lolium perenne, 312 h, application rate 250 g/ha, 13 days after application, visual (100%=total damage; 0%=no damage), read-out: Post-emergence Herbicidal Activity (% Phytotoxicity) LOLPE. A digest of the protocol: as §1

For the molecule `Cc1cc(C)c(C2C(=O)CC(CCNC(=O)c3n[nH]c4ccccc34)C2=O)c(C)c1` (stereo not shown) [Compound A74], the pest or weed control at 250 g/ha in test [1] stood at 90%; in the test with Avena fatua (AVEFA), 30%; in test [2], 70%; in the test with Lolium perenne (LOLPE), 80%.

On to `Cc1cc(C)c(C2C(=O)CC(CCNC(=O)c3ocnc3C)C2=O)c(C)c1` (stereo not shown) [Compound A181], for which the pest or weed control at 250 g/ha in test [1] came to 80%; with Avena fatua (AVEFA), 100%; in test [2], 80%; in the test with Lolium perenne (LOLPE) it was 90%.

`Cc1cc(C)c(C2C(=O)CC(CCNC(=O)c3ccco3)C2=O)c(C)c1` (stereo not shown) [Compound A7]: the pest or weed control at 250 g/ha in test [1] was 60%; in the test on Avena fatua (AVEFA), 50%; in test [2], 90%; in the test on Lolium perenne (LOLPE), 60%.

With `Cc1cc(C)c(C2C(=O)CC(CCNC(=O)c3nc(F)ccc3Br)C2=O)c(C)c1` (stereo not shown) [Compound A149], the pest or weed control at 250 g/ha (in test [1]; with Avena fatua (AVEFA); in test [2]; in the test on Lolium perenne (LOLPE)) was 100% in each case.

In the case of `Cc1cc(Cl)cc(C)c1C1C(=O)CC(CCNC(=O)c2ccccn2)C1=O` (stereo not shown) [Compound A124], the pest or weed control at 250 g/ha (in test [1]; in the test with Avena fatua (AVEFA); in test [2]; in the test with Lolium perenne (LOLPE)) was 100% each time.

On to `Cc1cc(C)c(C2C(=O)CC(CCNC(=O)c3cc(C)n(C)n3)C2=O)c(C)c1` (stereo not shown) [Compound A75], for which the pest or weed control at 250 g/ha (in test [1]; in the test on Avena fatua (AVEFA); in test [2]; in the test on Lolium perenne (LOLPE)) was 90% throughout.

Regarding `Cc1cc(-n2cc(Cl)cn2)cc(C)c1C1C(=O)CC(CCNC(=O)c2nc(Cl)ccc2Br)C1=O` (stereo not shown) [Compound A140], the pest or weed control at 250 g/ha turned out to be 90% in test [1], 100% with Avena fatua (AVEFA), 100% in test [2] and 100% in the test on Lolium perenne (LOLPE).

Take `COc1cc(C(=O)NCCC2CC(=O)C(c3c(C)cc(C)cc3C)C2=O)cc(Cl)n1` (stereo not shown) [Compound A28]: the pest or weed control at 250 g/ha in test [1] stood at 100%; in the test on Avena fatua (AVEFA) it was 50%; in test [2], 80%; with Lolium perenne (LOLPE) it was 70%.

For `Cc1cc(C)c(C2C(=O)CC(CCNC(=O)c3snnc3C)C2=O)c(C)c1` (stereo not shown) [Compound A180], the pest or weed control at 250 g/ha in test [1] came out at 70%; in the test on Avena fatua (AVEFA) it was 80%; in test [2], 90%; with Lolium perenne (LOLPE), 80%.

`Cc1cc(C)c(C2C(=O)CC(CCNC(=O)c3ncc(C)nc3N)C2=O)c(C)c1` (stereo not shown) [Compound A70]: the pest or weed control at 250 g/ha amounted to 100% in test [1], 90% with Avena fatua (AVEFA), 90% in test [2] and 100% in the test on Lolium perenne (LOLPE).

Take `Cc1cc(C)c(C2C(=O)CC(CCNC(=O)c3oc(C)nc3C)C2=O)c(C)c1` (stereo not shown) [Compound A178]: the pest or weed control at 250 g/ha in test [1] came to 70%; in the test on Avena fatua (AVEFA) it was 90%; in test [2], 80%; with Lolium perenne (LOLPE) it was 100%.

Consider `CCC(CC1CC(=O)C(c2c(C)cc(C)cc2C)C1=O)NC(=O)c1ccccc1` (stereo not shown) [Compound A88], for which the pest or weed control at 250 g/ha in test [1] was determined as 80%; in the test with Avena fatua (AVEFA), 90%; in test [2], 100%; with Lolium perenne (LOLPE) it was 100%.

Regarding `Cc1cc(-c2ccc(F)cn2)cc(C)c1C1C(=O)CC(CCNC(=O)c2ccccn2)C1=O` (stereo not shown) [Compound A117], the pest or weed control at 250 g/ha (in test [1]; in the test on Avena fatua (AVEFA); in test [2]; in the test with Lolium perenne (LOLPE)) was 100% in each case.

As to `Cc1cc(C)c(C2C(=O)CC(CCNC(=O)c3nc(Cl)ccc3Cl)C2=O)c(C)c1` (stereo not shown) [Compound A39], the pest or weed control at 250 g/ha (in test [1]; with Avena fatua (AVEFA); in test [2]; in the test with Lolium perenne (LOLPE)) was 100% in each case.

On to `Cc1cc(C)c(C2C(=O)CC(CCNC(=O)c3nonc3C)C2=O)c(C)c1` (stereo not shown) [Compound A51], for which the pest or weed control at 250 g/ha in test [1] turned out to be 100%; with Avena fatua (AVEFA), 90%; in test [2] it was 90%; with Lolium perenne (LOLPE), 100%.

With `Cc1cc(C)c(C2C(=O)CC(CCNC(=O)c3cccnc3F)C2=O)c(C)c1` (stereo not shown) [Compound A151], the pest or weed control at 250 g/ha (in test [1]; in the test with Avena fatua (AVEFA); in test [2]; in the test with Lolium perenne (LOLPE)) was 90% in each case.

For the molecule `COc1cc(OC)nc(C(=O)NCCC2CC(=O)C(c3c(C)cc(C)cc3C)C2=O)n1` (stereo not shown) [Compound A69], the pest or weed control at 250 g/ha in test [1] worked out at 50%; in the test on Avena fatua (AVEFA), 70%; in test [2] it was 30%; in the test with Lolium perenne (LOLPE) it was 60%.

`Cc1cc(C)c(C2C(=O)CC(CCNC(=O)c3ccccc3Cl)C2=O)c(C)c1` (stereo not shown) [Compound A20]: the pest or weed control at 250 g/ha was 70% in test [1], 70% with Avena fatua (AVEFA), 100% in test [2] and 100% with Lolium perenne (LOLPE).

As for `Cc1cc(C)c(C2C(=O)CC(CCNC(=O)c3ccc(C(F)(F)F)cc3)C2=O)c(C)c1` (stereo not shown) [Compound A12], the pest or weed control at 250 g/ha is 80% in test [1], 100% in the test on Avena fatua (AVEFA), 100% in test [2] and 100% with Lolium perenne (LOLPE).
